Assay results published in PubChem BioAssay (NCI).
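Grown in 96-well plates, cells were treated for 48 hours with each compound at five concentrations. Insufficient inhibition: endpoint recorded as highest concentration tested. TGI denotes the concentration required for complete inhibition of growth.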

How the values were obtained:
Test in all cases: NCI-60 cell line screen, 48 h
NCI-H522 lung = tested on: NCI-H522 lung
NCI/ADR-RES ovarian = tested on: NCI/ADR-RES ovarian
HCT-116 colon = tested on: HCT-116 colon
HS 578T breast = tested on: HS 578T breast
SK-OV-3 ovarian = tested on: SK-OV-3 ovarian
EKVX NSCLC = tested on: EKVX NSCLC
K-562 leukemia = tested on: K-562 leukemia
TK-10 renal = tested on: TK-10 renal
RPMI-8226 leukemia = tested on: RPMI-8226 leukemia
ACHN renal = tested on: ACHN renal
OVCAR-5 ovarian = tested on: OVCAR-5 ovarian
UACC-62 melanoma = tested on: UACC-62 melanoma
A549 NSCLC = tested on: A549 NSCLC
UO-31 renal = tested on: UO-31 renal
MDA-N = tested on: MDA-N
MDA-MB-435 = tested on: MDA-MB-435
SK-MEL-2 melanoma = tested on: SK-MEL-2 melanoma
786-0 renal = tested on: 786-0 renal
NCI-H226 lung = tested on: NCI-H226 lung

CC(C)NC(=O)OCc1c(COC(=O)NC(C)C)c(-c2ccc[n+](COC(=O)CC(C)(C)C)c2)n2c1CCC2
TGI (NCI-H522 lung): > 100 µM
TGI (NCI/ADR-RES ovarian): > 100 µM
TGI (HCT-116 colon): > 100 µM
TGI (HS 578T breast): > 100 µM
TGI (SK-OV-3 ovarian): > 100 µM
TGI (EKVX NSCLC): > 100 µM
TGI (K-562 leukemia): > 100 µM
TGI (TK-10 renal): > 100 µM
TGI (RPMI-8226 leukemia): > 100 µM
TGI (ACHN renal): > 100 µM
TGI (OVCAR-5 ovarian): > 100 µM
TGI (UACC-62 melanoma): > 100 µM
TGI (A549 NSCLC): > 100 µM
TGI (UO-31 renal): > 100 µM
TGI (MDA-N): > 100 µM
TGI (MDA-MB-435): > 100 µM
TGI (SK-MEL-2 melanoma): > 100 µM
TGI (786-0 renal): > 100 µM
TGI (NCI-H226 lung): > 100 µM

CCOC(=O)C(=C(SC)SC)c1nn2c(=O)cc(C)nc2s1
TGI (NCI-H522 lung): 41.7 µM
TGI (NCI/ADR-RES ovarian): 90.4 µM
TGI (HCT-116 colon): 30.5 µM
TGI (HS 578T breast): > 100 µM
TGI (SK-OV-3 ovarian): > 100 µM
TGI (EKVX NSCLC): 53.8 µM
TGI (K-562 leukemia): 44.1 µM
TGI (TK-10 renal): 44.9 µM
TGI (RPMI-8226 leukemia): 41.3 µM
TGI (ACHN renal): 33.7 µM
TGI (OVCAR-5 ovarian): 67.2 µM
TGI (UACC-62 melanoma): 57.3 µM
TGI (A549 NSCLC): > 100 µM
TGI (UO-31 renal): 34 µM
TGI (MDA-N): 30.6 µM
TGI (MDA-MB-435): 30.7 µM
TGI (SK-MEL-2 melanoma): 37.5 µM
TGI (786-0 renal): 36.2 µM
TGI (NCI-H226 lung): 44.6 µM

Cn1c(=O)c2c(nc(NCCCCl)n2CC(=O)NCCCCl)n(C)c1=O
TGI (NCI-H522 lung): > 100 µM
TGI (NCI/ADR-RES ovarian): > 100 µM
TGI (HCT-116 colon): > 100 µM
TGI (HS 578T breast): > 100 µM
TGI (SK-OV-3 ovarian): > 100 µM
TGI (EKVX NSCLC): > 100 µM
TGI (K-562 leukemia): > 100 µM
TGI (TK-10 renal): > 100 µM
TGI (RPMI-8226 leukemia): > 100 µM
TGI (ACHN renal): > 100 µM
TGI (OVCAR-5 ovarian): > 100 µM
TGI (UACC-62 melanoma): > 100 µM
TGI (A549 NSCLC): > 100 µM
TGI (UO-31 renal): > 100 µM
TGI (MDA-N): > 100 µM
TGI (MDA-MB-435): > 100 µM
TGI (SK-MEL-2 melanoma): > 100 µM
TGI (786-0 renal): > 100 µM
TGI (NCI-H226 lung): > 100 µM

NS(=O)(=O)c1nnc(NC(=O)c2ccccc2)s1
TGI (NCI-H522 lung): > 100 µM
TGI (NCI/ADR-RES ovarian): > 100 µM
TGI (HCT-116 colon): > 100 µM
TGI (HS 578T breast): > 100 µM
TGI (SK-OV-3 ovarian): > 100 µM
TGI (EKVX NSCLC): > 100 µM
TGI (K-562 leukemia): > 100 µM
TGI (TK-10 renal): > 100 µM
TGI (RPMI-8226 leukemia): > 100 µM
TGI (ACHN renal): > 100 µM
TGI (OVCAR-5 ovarian): > 100 µM
TGI (UACC-62 melanoma): > 100 µM
TGI (A549 NSCLC): > 100 µM
TGI (UO-31 renal): > 100 µM
TGI (MDA-N): > 100 µM
TGI (MDA-MB-435): > 100 µM
TGI (SK-MEL-2 melanoma): > 100 µM
TGI (786-0 renal): > 100 µM
TGI (NCI-H226 lung): > 100 µM

N#Cc1nc(COCCOCc2ccccc2)oc1N
TGI (NCI-H522 lung): > 100 µM
TGI (NCI/ADR-RES ovarian): > 100 µM
TGI (HCT-116 colon): > 100 µM
TGI (HS 578T breast): > 100 µM
TGI (SK-OV-3 ovarian): > 100 µM
TGI (EKVX NSCLC): > 100 µM
TGI (K-562 leukemia): > 100 µM
TGI (TK-10 renal): > 100 µM
TGI (RPMI-8226 leukemia): > 100 µM
TGI (ACHN renal): > 100 µM
TGI (OVCAR-5 ovarian): > 100 µM
TGI (UACC-62 melanoma): > 100 µM
TGI (A549 NSCLC): > 100 µM
TGI (UO-31 renal): > 100 µM
TGI (MDA-N): > 100 µM
TGI (MDA-MB-435): > 100 µM
TGI (SK-MEL-2 melanoma): > 100 µM
TGI (786-0 renal): > 100 µM
TGI (NCI-H226 lung): > 100 µM
